The source of these data is US8318504B2, “MRP2 efflux pathway prognostic method” (priority 2009, dated 2012).

One data set deals with T1, NTCP (Homo sapiens, UniProt Q14973).
T1 construct: the coding region ligated into pcDNA5/FRT; expressed in transfected cells
T1 sequence (Q14973 1-349): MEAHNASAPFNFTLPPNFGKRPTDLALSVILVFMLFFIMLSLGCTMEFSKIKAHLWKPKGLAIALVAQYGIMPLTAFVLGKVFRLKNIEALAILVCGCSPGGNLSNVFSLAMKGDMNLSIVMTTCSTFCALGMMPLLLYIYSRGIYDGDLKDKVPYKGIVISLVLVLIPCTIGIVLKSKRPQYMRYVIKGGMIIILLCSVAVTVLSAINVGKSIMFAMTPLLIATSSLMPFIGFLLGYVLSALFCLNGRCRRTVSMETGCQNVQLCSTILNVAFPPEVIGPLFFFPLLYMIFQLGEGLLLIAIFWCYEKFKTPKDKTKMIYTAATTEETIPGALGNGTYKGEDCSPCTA
The experiment in a line: Uptake of TC and CLF into CHO cells stably expressing NTCP. The note with it: 45 seconds, sodium-dependent uptake rates. It is filed as cell-based. On the procedure:
cDNA for human NTCP [Hagenbuch et al., J Clin Invest 1994 March; 93(3): 1326-1331] was cut with EcoRV and HindI and the coding region ligated into pcDNA5/FRT (Invitrogen, Life-Technologies, Carlsbad, Calif.). CHO FlpIn cells (Invitrogen, Life-Technologies) were transfected with the resulting construct using Lipofectamine® 2000 (Invitrogen, Life-Technologies). Stably transfected cells were selected with 550 μg Hygromycin-B in HAM-F12 medium (Gibco, Invitrogen, Life-Technologies). Transfected cells were cloned with the limiting dilution method. […] To further characterize the cloned cells, immunofluorescence localization of NTCP using a polyclonal antibody against NTCP [Kullak-Ublick G et al., Gastroenterology 1997 October; 113(4):1295-1305] was performed as described by Huber R D et al. [Am J Physiol Cell Physiol 2007 February; 292(2):[…]-[…]]. CHO cells expressing OATP1B1, OATP1B3 and OATP2B1 were described previously [Treiber et al., DMD 35:1400-1407, 2007]. For all transport experiments, cells grown on 3 cm culture dishes were cultured for 24 hours in media supplemented with 5 mmol/L sodium-butyrate to increase expression levels of transfected transporters [Palermo D P et al., J Biotechnol 1991 June; 19(1):35-47]. • Transport experiments with uptake of radioactively labeled substrates: These experiments were performed as described by Huber R D et al. […] Uptake was performed in the same buffers as for the radioactive substrates above. For visualization of CLF uptake, cells were immediately inspected with a Leica-DM-IRBE-inverted-microcope (Leica-Microsystems, Wetzlar, Germany) equipped with a Hamamatsu-ORKA-ER-camera (Hamamatsu-Photonoics, Japan). To determine uptake of CLF, cells were solubilized by the addition of 2 ml 1% (w/v) Triton-X-100. After complete solubilization, 1.5 ml was used to measure fluorescence in a Perkin-Elmer LS-5 luminescence-spectrometer set at λexe 486 nm (slit 10 nm) and λem 520 nm (slit 5 nm). Protein was determined with the bicinchoninic acid method using a kit from Interchim (Montfuçon, France). […]

Substrate in data set [1]: CC(CCC(=O)NC(CCCCNC(=S)Nc1ccc(-c2c3ccc(=O)cc-3oc3cc(O)ccc23)c(C(=O)O)c1)C(=O)O)C1CCC2C3C(O)CC4CC(O)CCC4(C)C3CC(O)C12C
The experiment in a line: ATP-dependent transport of CLF into Sf21 membrane vesicles containing ABCC2. In kind it is biochemical, human. Conditions: other: 10 μg total protein, presence or absence of 4 mmol/L ATP; 27.0 °C. On the procedure:
(§1) The production of recombinant baculovirus was as described by de Waart et al. [Liver Int 2006 April; 26(3):362-368]. ABCC3 and ABCG2-recombinant baculovirus were a kind gift from Borst [Breedveld P. et al., Cancer Res 2004 Aug. 15; 64(16):5804-5811 and Borst P. et al., J Biol Chem 2001 Dec. 7; 276(49):46400-46407.]. ABCB11-recombinant baculovirus was a kind gift from Thompson [Thompson R J et al., Gastroenterology 2002 November; 123(5):1649-1658]. Sf21 cells grown at 27° C. were infected with ABCB11, ABCC2, ABCC3 and ABCG2-cDNA containing baculovirus. Cells were harvested at 2-4 days after infection. Membrane vesicle preparation was as described by de Waart et al. [Liver Int 2006 April; 26(3):362-368].
(§2) Transport studies with membrane vesicles were performed using the rapid filtration technique as described by Heijn M et al. [Am J Physiol 1992 January; 262(1 Pt 1):C104-C110]. Radiolabel was measured with a scintillation counter. When CLF was used as a probe, filters were placed in a glass tube, 0.1% Triton-X-100 was added and the tubes vortexed. Samples were pipetted in 96-well plates (Kartell, Noviglio, Italy) and the amount CLF quantitated by measurement of fluorescence at λexe 485 nm and λcm 520 nm using a NovoStar (BMG-labtech, Offenburg, Germany). […]

Substrate in data set [2]: CC(CCC(=O)NC(CCCCNC(=S)Nc1ccc(-c2c3ccc(=O)cc-3oc3cc(O)ccc23)c(C(=O)O)c1)C(=O)O)C1CCC2C3C(O)CC4CC(O)CCC4(C)C3CC(O)C12C
Kind of data set: ATP-dependent transport of CLF into Sf21 membrane vesicles containing ABCC3. In kind it is biochemical, human. The note with it: other: 30 μg total protein, presence or absence of 4 mmol/L ATP; 27.0 °C. On the procedure: as §1, §2

For the molecule `C[C@H](CCC(=O)NCCS(=O)(=O)O)[C@H]1CC[C@H]2[C@@H]3[C@H](O)C[C@@H]4C[C@H](O)CC[C@]4(C)[C@H]3C[C@H](O)[C@]12C` [TC, taurocholate], the “Vmax for sodium-dependent transport of TC” value on NTCP worked out at 6738 pmol TC/mg protein/min. On NTCP (read-out: Km for sodium-dependent transport of TC), the Km was 16 µM.

B1: ABCC2 (Homo sapiens) (protein)
chain: MLEKFCNSTFWNSSFLDSPEADLPLCFEQTVLVWIPLGYLWLLAPWQLLHVYKSRTKRSSTTKLYLAKQVFVGFLLILAAIELALVLTEDSGQATVPAVRYTNPSLYLGTWLLVLLIQYSRQWCVQKNSWFLSLFWILSILCGTFQFQTLIRTLLQGDNSNLAYSCLFFISYGFQILILIFSAFSENNESSNNPSSIASFLSSITYSWYDSIILKGYKRPLTLEDVWEVDEEMKTKTLVSKFETHMKRELQKARRALQRRQEKSSQQNSGARLPGLNKNQSQSQDALVLEDVEKKKKKSGTKKDVPKSWLMKALFKTFYMVLLKSFLLKLVNDIFTFVSPQLLKLLISFASDRDTYLWIGYLCAILLFTAALIQSFCLQCYFQLCFKLGVKVRTAIMASVYKKALTLSNLARKEYTVGETVNLMSVDAQKLMDVTNFMHMLWSSVLQIVLSIFFLWRELGPSVLAGVGVMVLVIPINAILSTKSKTIQVKNMKNKDKRLKIMNEILSGIKILKYFAWEPSFRDQVQNLRKKELKNLLAFSQLQCVVIFVFQLTPVLVSVVTFSVYVLVDSNNILDAQKAFTSITLFNILRFPLSMLPMMISSMLQASVSTERLEKYLGGDDLDTSAIRHDCNFDKAMQFSEASFTWEHDSEATVRDVNLDIMAGQLVAVIGPVGSGKSSLISAMLGEMENVHGHITIKGTTAYVPQQSWIQNGTIKDNILFGTEFNEKRYQQVLEACALLPDLEMLPGGDLAEIGEKGINLSGGQKQRISLARATYQNLDIYLLDDPLSAVDAHVGKHIFNKVLGPNGLLKGKTRLLVTHSMHFLPQVDEIVVLGNGTIVEKGSYSALLAKKGEFAKNLKTFLRHTGPEEEATVHDGSEEEDDDYGLISSVEEIPEDAASITMRRENSFRRTLSRSSRSNGRHLKSLRNSLKTRNVNSLKEDEELVKGQKLIKKEFIETGKVKFSIYLEYLQAIGLFSIFFIILAFVMNSVAFIGSNLWLSAWTSDSKIFNSTDYPASQRDMRVGVYGALGLAQGIFVFIAHFWSAFGFVHASNILHKQLLNNILRAPMRFFDTTPTGRIVNRFAGDISTVDDTLPQSLRSWITCFLGIISTLVMICMATPVFTIIVIPLGIIYVSVQMFYVSTSRQLRRLDSVTRSPIYSHFSETVSGLPVIRAFEHQQRFLKHNEVRIDTNQKCVFSWITSNRWLAIRLELVGNLTVFFSALMMVIYRDTLSGDTVGFVLSNALNITQTLNWLVRMTSEIETNIVAVERITEYTKVENEAPWVTDKRPPPDWPSKGKIQFNNYQVRYRPELDLVLRGITCDIGSMEKIGVVGRTGAGKSSLTNCLFRILEAAGGQIIIDGVDIASIGLHDLREKLTIIPQDPILFSGSLRMNLDPFNNYSDEEIWKALELAHLKSFVASLQLGLSHEVTEAGGNLSIGQRQLLCLGRALLRKSKILVLDEATAAVDLETDNLIQTTIQNEFAHCTVITIAHRLHTIMDSDKVMVLDNGKIIECGSPEELLQIPGPFYFMAKEAGIENVNSTKF
notes: made in house; host or cells: Sf21 insect cells, baculovirus; plasma membrane vesicles
B1: the Km in data set [1] worked out at 3.3 ± 2.0 µM.

B2: ABCC3 (Homo sapiens) (protein)
chain: MDALCGSGELGSKFWDSNLSVHTENPDLTPCFQNSLLAWVPCIYLWVALPCYLLYLRHHCRGYIILSHLSKLKMVLGVLLWCVSWADLFYSFHGLVHGRAPAPVFFVTPLVVGVTMLLATLLIQYERLQGVQSSGVLIIFWFLCVVCAIVPFRSKILLAKAEGEISDPFRFTTFYIHFALVLSALILACFREKPPFFSAKNVDPNPYPETSAGFLSRLFFWWFTKMAIYGYRHPLEEKDLWSLKEEDRSQMVVQQLLEAWRKQEKQTARHKASAAPGKNASGEDEVLLGARPRPRKPSFLKALLATFGSSFLISACFKLIQDLLSFINPQLLSILIRFISNPMAPSWWGFLVAGLMFLCSMMQSLILQHYYHYIFVTGVKFRTGIMGVIYRKALVITNSVKRASTVGEIVNLMSVDAQRFMDLAPFLNLLWSAPLQIILAIYFLWQNLGPSVLAGVAFMVLLIPLNGAVAVKMRAFQVKQMKLKDSRIKLMSEILNGIKVLKLYAWEPSFLKQVEGIRQGELQLLRTAAYLHTTTTFTWMCSPFLVTLITLWVYVYVDPNNVLDAEKAFVSVSLFNILRLPLNMLPQLISNLTQASVSLKRIQQFLSQEELDPQSVERKTISPGYAITIHSGTFTWAQDLPPTLHSLDIQVPKGALVAVVGPVGCGKSSLVSALLGEMEKLEGKVHMKGSVAYVPQQAWIQNCTLQENVLFGKALNPKRYQQTLEACALLADLEMLPGGDQTEIGEKGINLSGGQRQRVSLARAVYSDADIFLLDDPLSAVDSHVAKHIFDHVIGPEGVLAGKTRVLVTHGISFLPQTDFIIVLADGQVSEMGPYPALLQRNGSFANFLCNYAPDEDQGHLEDSWTALEGAEDKEALLIEDTLSNHTDLTDNDPVTYVVQKQFMRQLSALSSDGEGQGRPVPRRHLGPSEKVQVTEAKADGALTQEEKAAIGTVELSVFWDYAKAVGLCTTLAICLLYVGQSAAAIGANVWLSAWTNDAMADSRQNNTSLRLGVYAALGILQGFLVMLAAMAMAAGGIQAARVLHQALLHNKIRSPQSFFDTTPSGRILNCFSKDIYVVDEVLAPVILMLLNSFFNAISTLVVIMASTPLFTVVILPLAVLYTLVQRFYAATSRQLKRLESVSRSPIYSHFSETVTGASVIRAYNRSRDFEIISDTKVDANQRSCYPYIISNRWLSIGVEFVGNCVVLFAALFAVIGRSSLNPGLVGLSVSYSLQVTFALNWMIRMMSDLESNIVAVERVKEYSKTETEAPWVVEGSRPPEGWPPRGEVEFRNYSVRYRPGLDLVLRDLSLHVHGGEKVGIVGRTGAGKSSMTLCLFRILEAAKGEIRIDGLNVADIGLHDLRSQLTIIPQDPILFSGTLRMNLDPFGSYSEEDIWWALELSHLHTFVSSQPAGLDFQCSEGGENLSVGQRQLVCLARALLRKSRILVLDEATAAIDLETDNLIQATIRTQFDTCTVLTIAHRLNTIMDYTRVLVLDKGVVAEFDSPANLIAARGIFYGMARDAGLA
notes: made in house; host or cells: Sf21 insect cells, baculovirus (gift from Borst); plasma membrane vesicles
With B2, in data set [2], the Km was 3.7 ± 1.0 µM.
